The record followed here is patent US20160066572A1, “METHOD OF SANITIZING EDIBLE SEEDS, PARTICULARLY MUCILAGE PRODUCING SEEDS” (AGRI-NEO INC., priority 2013, published 2016).

In test [1] the test system is Total count Aerobic bacteria. The test can be described thus: Total aerobic count on seeds, grains and spices sprayed with sanitizing solutions (Example 1). The class given is cell-based. How it is done:
(§1) Seeds were mechanically cleaned and spread in stainless steel containers. Each 100 grams seeds were sprayed with 4 ml total solutions descried above via conventional trigger vaporizer. This solution is equivalent to 40 L disinfecting solution total sprayed on 1-tonne seeds. Seeds, grains and spices were selected to represent all families and types of seeds, grains and spices. Another criterium was to select seeds and grains contaminated with a high count of total aerobic bacteria, yeast, mold, E. coli, Salmonella sp. and other pathogenic microorganisms.
(§2) Seeds, grains and spices treated were: • Whole dried pea, • Split pea dried, • Pea fiber, • Vanilla, • Chia, • Sprouted flax and chia, • Flax, • Hemp, and • Black pepper seeds

For test [2], the system named is yeast and mold (Y&M). The test can be described thus: Y&M count on seeds, grains and spices sprayed with sanitizing solutions (Example 1). The class given is cell-based. The following applies: 40 L/tonne; for Y&M, Av: average; for Y&M, n1: replicate n1; for Y&M, n2: replicate n2. The procedure: as §1, §2
Test [3] has as its system chia and flax seeds. Kind of test: Mucilage release from mucilaginous seeds after treatment. The following applies: alcohol in the aqueous sanitizing composition.
Method: A minimum of 4 ml of the treatment solution was sprayed, using a handheld atomizing sprayer while mixing, on 100 gram samples of chia and flax seeds. The samples were allowed to air dry and checked for mucilage.
A minimum of 4 ml of the treatment solution was sprayed, using a handheld atomizing sprayer while mixing, on 100-gram samples of chia and flax seeds. The samples were allowed to air dry and checked for mucilage.
Where [4] appears, read: whole dried pea, 40 L per 1 tonne.

Structures are written as SMILES.

Regarding `CC(=O)OO` [Peracetic acid], the “bactericidal effect (conclusion)” value in test [1] (black pepper, 40 L per 1 tonne) is recorded as “strong bactericidal agent”; in test [1] (hemp, 40 L per 1 tonne) it was “strong bactericidal agent”; in test [1] (pea fiber, 40 L per 1 tonne), “strong bactericidal agent”; in test [1] (split pea, 40 L per 1 tonne) it was “strong bactericidal agent”; in test [1] (vanilla, 40 L per 1 tonne), “strong bactericidal agent”; in test [1] (setting [4]) it was “strong bactericidal agent”.

As to `CCO` [2- Alcohol - ethanol, ethanol], the “bactericidal effect (conclusion)” value was “not a strong bactericidal agent” in test [1] (black pepper, 40 L per 1 tonne); “not a strong bactericidal agent” in test [1] (hemp, 40 L per 1 tonne); “not a strong bactericidal agent” in test [1] (pea fiber, 40 L per 1 tonne); “not a strong bactericidal agent” in test [1] (split pea, 40 L per 1 tonne); “bactericidal agent but not very strong” in test [1] (sprouted flax and chia); “not a strong bactericidal agent” in test [1] (vanilla, 40 L per 1 tonne). The “bactericidal effect (conclusion)” value in test [1] (setting [4]) is on record as “not a strong bactericidal agent”. Besides, the “Total count Aerobic CFU/g bacteria, Av” value is “Av = 1 million” in test [1] (black pepper, 40 L/tonne, average); “Av = 510,000 CFU/g” in test [1] (chia seeds, 40 L/tonne, average); “Av = 2 millions” in test [1] (flax seeds, 40 L/tonne, average); “Av = 1 million” in test [1] (hemp, 40 L/tonne, average); “Av = 700,000 CFU/g” in test [1] (pea fiber, 40 L/tonne, average); “Av = 600,000 CFU/g” in test [1] (sprouted flax and chia, 40 L/tonne, average). In addition, the “Total count Aerobic CFU/g bacteria, Av” value in test [1] (vanilla, 40 L/tonne, average) is “Av = 1 million”; in test [1] (whole split pea, 40 L/tonne, average) it was “Av = 700,000 CFU/g”. Moreover, the “Total count Aerobic CFU/g bacteria, n1” value in test [1] (chia seeds, 40 L/tonne, replicate n1) is “n1 = 520,000 CFU/g”; in test [1] (flax seeds, 40 L/tonne, replicate n1), “n1 = 1.8 millions”; in test [1] (hemp, 40 L/tonne, replicate n1), “n1 = 800,000 CFU/g”; in test [1] (pea fiber, 40 L/tonne, replicate n1), “n1 = 500,000 CFU/g”; in test [1] (sprouted flax and chia, 40 L/tonne, replicate n1) it was “n1 = 550,000 CFU/g”; in test [1] (vanilla, 40 L/tonne, replicate n1), “n1 = 1 million”. Also, in test [1] (whole split pea, 40 L/tonne, replicate n1), the “Total count Aerobic CFU/g bacteria, n1” value is on record as “n1 = 700,000 CFU/g”. Besides, the “Total count Aerobic CFU/g bacteria, n2” value in test [1] (chia seeds, 40 L/tonne, replicate n2) is on record as “n2 = 500,000 CFU/g”; in test [1] (flax seeds, 40 L/tonne, replicate n2), “n2 = 2.2 millions”; in test [1] (hemp, 40 L/tonne, replicate n2), “n2 = 1.2 millions”; in test [1] (pea fiber, 40 L/tonne, replicate n2), “n2 = 900,000 CFU/g”; in test [1] (sprouted flax and chia, 40 L/tonne, replicate n2), “n2 = 650,000 CFU/g”; in test [1] (vanilla, 40 L/tonne, replicate n2) it was “n2 = 1 million”. For the same compound, the “Total count Aerobic CFU/g bacteria, n2” value in test [1] (whole split pea, 40 L/tonne, replicate n2) is on record as “n2 = 700,000 CFU/g”. Further, the “Total count Aerobic - CFU/g bacteria, Av” value in test [1] (whole dried pea, 40 L/tonne, average) is “Av = 900,000 CFU/g”. Moreover, the “Total count Aerobic - CFU/g bacteria, n1” value in test [1] (whole dried pea, 40 L/tonne, replicate n1) is given as “n1 = 800,000 CFU/g”. The “Total count Aerobic - CFU/g bacteria, n2” value in test [1] (whole dried pea, 40 L/tonne, replicate n2) was “n2 = 1 million”. In addition, the “Y&M, Av” value is recorded as “Av = 1,000 Y&M CFU/g” in test [2] (black pepper); “Av = 10,000 Y&M CFU/g” in test [2] (chia seeds); “Av = 1,000 Y&M CFU/g” in test [2] (flax seeds); “Av = 1,000 Y&M CFU/g” in test [2] (hemp); “Y&M not detected” in test [2] (pea fiber); “Av = 1,000 Y&M CFU/g” in test [2] (sprouted flax and chia). Moreover, the “Y&M, Av” value in test [2] (vanilla) was “Av = 1,000 Y&M CFU/g”; in test [2] (whole dried pea), “Y&M not detected”; in test [2] (whole split pea) it was “Y&M not detected”. The “Y&M, n1” value in test [2] (chia seeds) is on record as “n1 = 10,000/n2 = 10,000 CFU/g”; in test [2] (flax seeds), “n1 = 1,000/n2 = 1,000 CFU/g”; in test [2] (hemp), “n1 = 1000/n2 = 1000 CFU/g”; in test [2] (pea fiber), “n1, n2 not detected”; in test [2] (sprouted flax and chia) it was “n1 = 1,000/n2 = 1,000 CFU/g”; in test [2] (vanilla) it was “n1 = 1000/n2 = 1000 CFU/g”. In addition, the “Y&M, n1” value in test [2] (whole dried pea) is reported as “n1, n2 not detected”; in test [2] (whole split pea), “n1, n2 not detected”. The “Y&M, n2” value in test [2] (chia seeds) was “n1 = 10,000/n2 = 10,000 CFU/g”; in test [2] (flax seeds), “n1 = 1,000/n2 = 1,000 CFU/g”; in test [2] (hemp), “n1 = 1000/n2 = 1000 CFU/g”; in test [2] (pea fiber), “n1, n2 not detected”; in test [2] (sprouted flax and chia), “n1 = 1,000/n2 = 1,000 CFU/g”; in test [2] (vanilla) it was “n1 = 1000/n2 = 1000 CFU/g”. Besides, the “Y&M, n2” value in test [2] (whole dried pea) is given as “n1, n2 not detected”; in test [2] (whole split pea), “n1, n2 not detected”.

As for `CCO` [ethanol], in test [3], the “effective amount (concentration) required to suppress mucilage release” value is reported as “about 15 % by volume”.

`CC(O)CO` (centres unmarked) [propylene glycol]: the “effective amount (concentration) required to suppress mucilage release” value in test [3] is recorded as “about 13 % by volume”.
